Test results as given in ChEMBL document CHEMBL1201862, “PubChem BioAssay data set” (2004).
Activity calls are given as the source filed them.

Legend:
[1] = target: T1, Bcl-2-like protein 10 (Homo sapiens, UniProt Q9HD36); assay: displacers of TR3 peptide from Bcl-B, primary screen, selectivity assay for Bfl-1 inhibitor project, biochemical, fluorescence polarization, FITC-TR3 peptide (AID 748);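 also: fluorescence polarization from a fluorescein-labelled TR3 peptide binding purified Bcl-B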
T1 sequence (Q9HD36 whole entry): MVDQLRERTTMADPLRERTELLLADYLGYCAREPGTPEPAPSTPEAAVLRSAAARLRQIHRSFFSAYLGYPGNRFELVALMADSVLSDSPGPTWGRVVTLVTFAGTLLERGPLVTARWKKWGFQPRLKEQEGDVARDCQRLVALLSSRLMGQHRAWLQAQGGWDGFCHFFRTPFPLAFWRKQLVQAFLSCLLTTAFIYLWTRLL

[2] = target: T2, Bcl-2-related protein A1 (Mus musculus, UniProt Q07440); assay: Bfl-1 inhibitors, primary screen, biochemical, fluorescence polarization, FITC-Bid, mouse (AID 432)
T2 sequence (Q07440 whole entry): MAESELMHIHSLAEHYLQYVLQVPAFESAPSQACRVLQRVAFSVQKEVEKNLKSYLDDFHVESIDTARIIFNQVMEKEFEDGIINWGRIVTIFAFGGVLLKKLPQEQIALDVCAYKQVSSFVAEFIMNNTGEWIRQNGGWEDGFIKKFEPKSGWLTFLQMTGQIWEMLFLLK

[3] = target: DNA dC->dU-editing enzyme APOBEC-3A (Homo sapiens, UniProt P31941); assay: Dose Response confirmation of small molecule APOBEC3A DNA Deaminase Inhibitors via a fluorescence-based single-stranded DNA deaminase assay. [Related pubchem assays (depositor defined):AID493011, AID493024]; type: functional
[4] = target: T3, Tyrosine-protein phosphatase non-receptor type 7 (Homo sapiens, UniProt P35236); assay: inhibitors of human HePTP phosphatase, […], biochemical, absorbance, leukemia target (AID 521); type: functional
T3 sequence (P35236 whole entry): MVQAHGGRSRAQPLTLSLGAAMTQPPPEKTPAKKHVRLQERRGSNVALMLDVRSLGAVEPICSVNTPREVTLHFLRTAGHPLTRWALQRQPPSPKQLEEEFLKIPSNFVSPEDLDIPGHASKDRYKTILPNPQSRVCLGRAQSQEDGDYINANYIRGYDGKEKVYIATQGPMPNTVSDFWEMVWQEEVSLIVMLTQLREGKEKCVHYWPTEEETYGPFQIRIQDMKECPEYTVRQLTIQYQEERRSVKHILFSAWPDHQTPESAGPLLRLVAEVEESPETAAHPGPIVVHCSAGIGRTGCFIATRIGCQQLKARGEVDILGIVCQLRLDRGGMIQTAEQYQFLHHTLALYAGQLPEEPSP

[5] = target: DNA dC->dU-editing enzyme APOBEC-3G (Homo sapiens, UniProt Q9HC16); type: functional;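 also: Dose-response counterscreen measuring inhibition of APOBEC3G DNA deaminase activity, run while confirming APOBEC3A inhibitors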
[6] = target: T4, Dual specificity protein phosphatase 6 (Rattus norvegicus, UniProt Q64346); assay: MKP-3 phosphatase inhibitors, primary screen, biochemical, rat enzyme, in vitro (AID 425)
T4 sequence (Q64346 whole entry): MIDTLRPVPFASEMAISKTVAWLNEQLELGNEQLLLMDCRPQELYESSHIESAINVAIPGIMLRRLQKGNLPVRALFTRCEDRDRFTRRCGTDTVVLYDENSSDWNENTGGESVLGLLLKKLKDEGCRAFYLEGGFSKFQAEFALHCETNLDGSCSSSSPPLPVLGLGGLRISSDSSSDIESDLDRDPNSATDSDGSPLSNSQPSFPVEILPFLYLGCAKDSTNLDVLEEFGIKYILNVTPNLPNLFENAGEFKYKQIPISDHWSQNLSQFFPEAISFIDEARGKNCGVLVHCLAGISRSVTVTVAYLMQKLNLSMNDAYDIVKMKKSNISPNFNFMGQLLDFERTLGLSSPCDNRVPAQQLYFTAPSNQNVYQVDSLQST

[7] = Luminescence Cell-Based Dose Response HTS to Identify Inhibitors of 5'UTR Stem-Loop Driven Prion Protein mRNA Translation in H4 Neuroglioblastoma Cells. [Related pubchem assays: 1827 (Project Summary), 1813 (Primary HTS)]; type: functional
[8] = inhibitors of firefly luciferase expression or activity, dose response, H4 neuroglioma cells, luminescence (AID 1990); type: functional, cell-based
[9] = tested on: Vero; assay: host cell cytotoxicity of antiviral hits, dose response, cytotoxicity control for West Nile virus antiviral project, secondary assay (AID 1650); type: functional; conditions: Chlorocebus sabaeus
[10] = inhibitors of SNCA 5'UTR-driven reporter translation, confirmation, H4 neuroglioma cells, luminescence (AID 1988); type: functional, cell-based
[11] = HEp-2 cell cytotoxicity, dose response, cytotoxicity control for RSV inhibitor project, HTS (AID 2410); type: functional; conditions: human respiratory syncytial virus
[12] = THP-1 cell cytotoxicity, dose response, cytotoxicity control for non-replicating M. tuberculosis project (AID 489025); type: functional
[13] = Vero E6 cell cytotoxicity, dose response, cytotoxicity control for non-replicating M. tuberculosis project, secondary assay (AID 492998); type: functional, VeroE6; conditions: Vero C1008
[14] = cells; type: functional
[15] = inhibitors of intracellular T. cruzi replication, confirmation, NIH3T3 host cells, beta-gal luminescence (AID 2044); type: functional, cell-based;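 also: intracellular parasites grown in NIH/3T3 mouse fibroblasts as host cells; luminescent beta-galactosidase reporter signal from transgenic T. cruzi replicating inside host cells; inhibitors lower the luminescence signal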
[16] = cytotoxicity toward NIH3T3 fibroblasts, dose response, counter-screen, cell-based, ATP luminescence, mouse fibroblasts (AID 2010); type: functional;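 also: cells exposed to compound for about 90 hours before reading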
[17] = A Cell Based Secondary Assay To Explore Cytotoxicity of Compounds that Sensitize Mycobacterium Tuberculosis to Beta-Lactam Antibiotics.; type: functional
[18] = Vero cell cytotoxicity, dose response, cytotoxicity control for Vif-APOBEC3G degradation inhibitor project, Vero cells (AID 1117358); type: functional; conditions: Human immunodeficiency virus 1, Vero
[19] = tested on: HEK293; assay: cells; conditions: Homo sapiens
[20] = target: Cytochrome P450 3A4 (Homo sapiens, UniProt P08684);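 also: CYP3A4 tested as one member of a cytochrome P450 panel screen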
[21] = target: Cytochrome P450 2C19 (Homo sapiens, UniProt P33261); assay: Cytochrome panel assay with activity outcomes. Panel member name: p450-cyp2c19 Compounds with AC50 equal or less than 10 uM are considered active; type: functional; conditions: read-out: AC50
[22] = target: Photoreceptor-specific nuclear receptor (Homo sapiens, UniProt Q9Y5X4); assay: NR2E3 inverse agonists, dose response, biochemical, TR-FRET (AID 463256); type: functional
[23] = target: Peroxisome proliferator-activated receptor gamma/Nuclear receptor corepressor 2 (Homo sapiens, UniProt P37231+Q9Y618); assay: Counterscreen for NR2E3 inverse agonists: TR-FRET-based biochemical high throughput dose response assay to identify inverse agonists of the interaction between peroxisome proliferator-activated receptor gamma (PPARg) and nuclear receptor co-repressor 2 (NCOR2).; type: functional
[24] = tested on: HEK293; assay: cells; conditions: Homo sapiens; remark: listed apart in the source
[25] = target: Cytochrome P450 2C9 (Homo sapiens, UniProt P11712)
[26] = target: T5, RNA-binding protein pos-1 (Caenorhabditis elegans, UniProt G5EF15); assay: inhibitors of POS-1/mex-3 RNA binding, dose response, biochemical, fluorescence polarization (AID 1964);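 also: purified POS-1 fused to maltose binding protein made in E. coli; potency of compounds blocking POS-1 binding to fluorescent RNA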
T5 sequence (G5EF15 whole entry): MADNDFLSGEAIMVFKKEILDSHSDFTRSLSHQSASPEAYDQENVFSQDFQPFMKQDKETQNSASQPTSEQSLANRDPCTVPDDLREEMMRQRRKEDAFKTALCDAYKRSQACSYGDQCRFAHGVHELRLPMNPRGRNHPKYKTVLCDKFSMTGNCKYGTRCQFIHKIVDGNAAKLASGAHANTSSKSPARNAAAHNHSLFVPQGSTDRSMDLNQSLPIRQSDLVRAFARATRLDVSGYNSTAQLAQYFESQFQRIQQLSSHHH

[27] = target: T6, Zinc finger protein mex-5 (Caenorhabditis elegans, UniProt Q9XUB2); assay: MEX-5/TCR-2 RNA interaction inhibitors, dose response, biochemical, C. elegans, fluorescence polarization (AID 1960)
T6 sequence (Q9XUB2 whole entry): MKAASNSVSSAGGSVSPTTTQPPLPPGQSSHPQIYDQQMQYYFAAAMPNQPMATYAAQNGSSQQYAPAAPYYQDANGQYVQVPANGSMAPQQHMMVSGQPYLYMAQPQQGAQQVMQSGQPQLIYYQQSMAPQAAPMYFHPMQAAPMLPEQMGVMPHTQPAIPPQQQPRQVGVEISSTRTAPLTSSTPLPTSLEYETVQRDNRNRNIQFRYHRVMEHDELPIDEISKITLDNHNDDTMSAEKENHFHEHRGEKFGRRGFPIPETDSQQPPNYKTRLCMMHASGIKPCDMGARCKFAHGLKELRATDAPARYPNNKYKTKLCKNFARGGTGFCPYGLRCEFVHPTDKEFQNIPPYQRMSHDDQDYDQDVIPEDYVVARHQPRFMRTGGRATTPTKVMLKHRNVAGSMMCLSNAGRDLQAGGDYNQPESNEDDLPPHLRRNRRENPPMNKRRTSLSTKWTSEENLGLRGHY

[28] = target: Ephrin type-A receptor 4 (Mus musculus, UniProt Q03137); assay: inhibitors of EphA4 binding to KYL peptide, primary screen, biochemical, colorimetric, mouse EphA4 (AID 689); type: functional
[29] = target: Voltage-dependent T-type calcium channel subunit alpha-1H (Homo sapiens, UniProt O95180); type: functional;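 also: channel activity triggered by adding a high calcium stimulation buffer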
[30] = cells
[31] = Plasmodium falciparum Dd2 Sybr green parasite growth Measured in Cell-Based and Microorganism Combination System Using Plate Reader - 2153-01_Inhibitor_Dose_DryPowder_Activity_Set3.; type: functional
[32] = P. falciparum ATP4 D1247Y mutant growth inhibitors, dose response, NITD609-resistant line, SYBR Green, dry powder (AID 1159571); type: functional, cell-based;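 also: parasites synchronized at ring stage by sorbitol before testing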
[33] = P. falciparum Dd2 growth inhibitors, dose response, SYBR Green, cherry-picked samples (AID 1159567); type: functional, cell-based
[34] = P. falciparum 3D7-ScDHODH growth inhibitors, dose response, SYBR Green, dry powder samples (AID 1159570); type: functional, cell-based;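 also: parasite growth measured after 72 hours of compound exposure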
[35] = P. falciparum Dd2 growth inhibitors, dose response, SYBR Green, dry powder samples (AID 1159566); type: functional, cell-based;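 also: potency for growth inhibition with lower SYBR green DNA signal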
[36] = HepG2 cell cytotoxicity, dose response, cytotoxicity control, plate reader, dry powder samples (AID 1159569); type: functional, cell-based;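 also: inhibitor potency with signal falling toward the positive control level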
[37] = Single fluorophore orthopox expression reporter, late gene expression Measured in Cell-Based and Microorganism Combination System Using Plate Reader - 2142-08_Inhibitor_Dose_DryPowder_Activity.; type: functional
[38] = A549 cell cytotoxicity, dose response, CellTiter-Glo luminescence, dry powder, set 17 (AID 1117284); type: functional, cell-based
[39] = inhibitors of orthopox intermediate gene expression, dose response, cell-based, single fluorophore reporter, dry powder (AID 1117271); type: functional

DNA dC->dU-editing enzyme APOBEC-3G, sequence (Q9HC16 whole entry): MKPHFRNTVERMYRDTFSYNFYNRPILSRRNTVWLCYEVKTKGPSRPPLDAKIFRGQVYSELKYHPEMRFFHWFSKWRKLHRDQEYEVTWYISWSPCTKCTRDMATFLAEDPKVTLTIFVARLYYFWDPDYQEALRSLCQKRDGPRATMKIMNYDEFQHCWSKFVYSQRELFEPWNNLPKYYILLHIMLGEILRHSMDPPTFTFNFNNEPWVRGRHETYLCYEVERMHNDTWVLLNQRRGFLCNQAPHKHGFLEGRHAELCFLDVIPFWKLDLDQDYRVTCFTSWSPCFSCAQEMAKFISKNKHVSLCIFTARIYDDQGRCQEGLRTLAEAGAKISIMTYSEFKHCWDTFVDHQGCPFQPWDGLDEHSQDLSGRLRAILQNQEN
DNA dC->dU-editing enzyme APOBEC-3A, sequence (P31941 whole entry): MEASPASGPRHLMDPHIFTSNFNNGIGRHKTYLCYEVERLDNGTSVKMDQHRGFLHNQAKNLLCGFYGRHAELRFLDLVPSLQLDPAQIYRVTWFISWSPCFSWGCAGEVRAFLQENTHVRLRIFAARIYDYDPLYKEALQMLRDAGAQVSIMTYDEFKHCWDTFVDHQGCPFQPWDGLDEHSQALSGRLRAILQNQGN
Ephrin type-A receptor 4, sequence (Q03137 whole entry): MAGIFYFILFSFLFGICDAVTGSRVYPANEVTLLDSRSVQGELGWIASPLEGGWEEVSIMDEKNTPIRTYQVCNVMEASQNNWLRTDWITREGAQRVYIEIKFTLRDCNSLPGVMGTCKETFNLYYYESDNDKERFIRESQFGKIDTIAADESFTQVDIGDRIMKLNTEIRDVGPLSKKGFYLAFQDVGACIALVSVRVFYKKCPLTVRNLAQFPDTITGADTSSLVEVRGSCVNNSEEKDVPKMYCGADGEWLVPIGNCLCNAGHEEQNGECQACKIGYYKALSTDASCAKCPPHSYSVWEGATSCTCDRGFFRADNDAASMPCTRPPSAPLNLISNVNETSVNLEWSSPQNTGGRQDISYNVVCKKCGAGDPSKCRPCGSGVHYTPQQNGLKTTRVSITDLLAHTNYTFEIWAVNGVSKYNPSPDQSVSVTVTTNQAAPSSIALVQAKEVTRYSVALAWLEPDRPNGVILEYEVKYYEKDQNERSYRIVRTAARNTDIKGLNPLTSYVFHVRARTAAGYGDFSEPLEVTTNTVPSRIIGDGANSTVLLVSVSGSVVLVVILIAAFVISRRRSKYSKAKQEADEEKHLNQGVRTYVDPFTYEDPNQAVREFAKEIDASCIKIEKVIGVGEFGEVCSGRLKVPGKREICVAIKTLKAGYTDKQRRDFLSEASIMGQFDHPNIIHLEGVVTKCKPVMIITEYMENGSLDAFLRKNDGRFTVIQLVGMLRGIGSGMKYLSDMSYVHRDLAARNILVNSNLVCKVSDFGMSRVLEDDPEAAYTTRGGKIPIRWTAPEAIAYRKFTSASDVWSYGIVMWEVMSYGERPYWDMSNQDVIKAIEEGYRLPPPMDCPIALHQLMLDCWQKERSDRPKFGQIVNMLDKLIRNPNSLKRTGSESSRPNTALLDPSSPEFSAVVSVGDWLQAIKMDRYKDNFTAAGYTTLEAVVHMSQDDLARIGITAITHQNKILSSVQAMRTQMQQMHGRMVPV
Peroxisome proliferator-activated receptor gamma/Nuclear receptor corepressor 2, sequence (P37231 whole entry): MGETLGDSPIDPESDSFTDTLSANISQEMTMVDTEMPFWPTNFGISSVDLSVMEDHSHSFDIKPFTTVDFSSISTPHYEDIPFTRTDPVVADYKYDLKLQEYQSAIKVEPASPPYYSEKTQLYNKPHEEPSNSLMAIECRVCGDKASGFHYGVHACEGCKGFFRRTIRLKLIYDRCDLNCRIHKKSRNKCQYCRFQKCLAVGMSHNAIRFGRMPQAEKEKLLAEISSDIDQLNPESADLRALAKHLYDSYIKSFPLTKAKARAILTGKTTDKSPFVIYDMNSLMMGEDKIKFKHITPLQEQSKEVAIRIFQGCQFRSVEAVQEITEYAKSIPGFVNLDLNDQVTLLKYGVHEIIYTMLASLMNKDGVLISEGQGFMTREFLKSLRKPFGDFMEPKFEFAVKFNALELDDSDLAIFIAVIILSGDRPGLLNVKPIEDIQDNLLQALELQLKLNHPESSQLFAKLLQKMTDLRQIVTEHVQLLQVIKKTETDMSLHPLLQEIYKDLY
Peroxisome proliferator-activated receptor gamma/Nuclear receptor corepressor 2, sequence (Q9Y618 whole entry): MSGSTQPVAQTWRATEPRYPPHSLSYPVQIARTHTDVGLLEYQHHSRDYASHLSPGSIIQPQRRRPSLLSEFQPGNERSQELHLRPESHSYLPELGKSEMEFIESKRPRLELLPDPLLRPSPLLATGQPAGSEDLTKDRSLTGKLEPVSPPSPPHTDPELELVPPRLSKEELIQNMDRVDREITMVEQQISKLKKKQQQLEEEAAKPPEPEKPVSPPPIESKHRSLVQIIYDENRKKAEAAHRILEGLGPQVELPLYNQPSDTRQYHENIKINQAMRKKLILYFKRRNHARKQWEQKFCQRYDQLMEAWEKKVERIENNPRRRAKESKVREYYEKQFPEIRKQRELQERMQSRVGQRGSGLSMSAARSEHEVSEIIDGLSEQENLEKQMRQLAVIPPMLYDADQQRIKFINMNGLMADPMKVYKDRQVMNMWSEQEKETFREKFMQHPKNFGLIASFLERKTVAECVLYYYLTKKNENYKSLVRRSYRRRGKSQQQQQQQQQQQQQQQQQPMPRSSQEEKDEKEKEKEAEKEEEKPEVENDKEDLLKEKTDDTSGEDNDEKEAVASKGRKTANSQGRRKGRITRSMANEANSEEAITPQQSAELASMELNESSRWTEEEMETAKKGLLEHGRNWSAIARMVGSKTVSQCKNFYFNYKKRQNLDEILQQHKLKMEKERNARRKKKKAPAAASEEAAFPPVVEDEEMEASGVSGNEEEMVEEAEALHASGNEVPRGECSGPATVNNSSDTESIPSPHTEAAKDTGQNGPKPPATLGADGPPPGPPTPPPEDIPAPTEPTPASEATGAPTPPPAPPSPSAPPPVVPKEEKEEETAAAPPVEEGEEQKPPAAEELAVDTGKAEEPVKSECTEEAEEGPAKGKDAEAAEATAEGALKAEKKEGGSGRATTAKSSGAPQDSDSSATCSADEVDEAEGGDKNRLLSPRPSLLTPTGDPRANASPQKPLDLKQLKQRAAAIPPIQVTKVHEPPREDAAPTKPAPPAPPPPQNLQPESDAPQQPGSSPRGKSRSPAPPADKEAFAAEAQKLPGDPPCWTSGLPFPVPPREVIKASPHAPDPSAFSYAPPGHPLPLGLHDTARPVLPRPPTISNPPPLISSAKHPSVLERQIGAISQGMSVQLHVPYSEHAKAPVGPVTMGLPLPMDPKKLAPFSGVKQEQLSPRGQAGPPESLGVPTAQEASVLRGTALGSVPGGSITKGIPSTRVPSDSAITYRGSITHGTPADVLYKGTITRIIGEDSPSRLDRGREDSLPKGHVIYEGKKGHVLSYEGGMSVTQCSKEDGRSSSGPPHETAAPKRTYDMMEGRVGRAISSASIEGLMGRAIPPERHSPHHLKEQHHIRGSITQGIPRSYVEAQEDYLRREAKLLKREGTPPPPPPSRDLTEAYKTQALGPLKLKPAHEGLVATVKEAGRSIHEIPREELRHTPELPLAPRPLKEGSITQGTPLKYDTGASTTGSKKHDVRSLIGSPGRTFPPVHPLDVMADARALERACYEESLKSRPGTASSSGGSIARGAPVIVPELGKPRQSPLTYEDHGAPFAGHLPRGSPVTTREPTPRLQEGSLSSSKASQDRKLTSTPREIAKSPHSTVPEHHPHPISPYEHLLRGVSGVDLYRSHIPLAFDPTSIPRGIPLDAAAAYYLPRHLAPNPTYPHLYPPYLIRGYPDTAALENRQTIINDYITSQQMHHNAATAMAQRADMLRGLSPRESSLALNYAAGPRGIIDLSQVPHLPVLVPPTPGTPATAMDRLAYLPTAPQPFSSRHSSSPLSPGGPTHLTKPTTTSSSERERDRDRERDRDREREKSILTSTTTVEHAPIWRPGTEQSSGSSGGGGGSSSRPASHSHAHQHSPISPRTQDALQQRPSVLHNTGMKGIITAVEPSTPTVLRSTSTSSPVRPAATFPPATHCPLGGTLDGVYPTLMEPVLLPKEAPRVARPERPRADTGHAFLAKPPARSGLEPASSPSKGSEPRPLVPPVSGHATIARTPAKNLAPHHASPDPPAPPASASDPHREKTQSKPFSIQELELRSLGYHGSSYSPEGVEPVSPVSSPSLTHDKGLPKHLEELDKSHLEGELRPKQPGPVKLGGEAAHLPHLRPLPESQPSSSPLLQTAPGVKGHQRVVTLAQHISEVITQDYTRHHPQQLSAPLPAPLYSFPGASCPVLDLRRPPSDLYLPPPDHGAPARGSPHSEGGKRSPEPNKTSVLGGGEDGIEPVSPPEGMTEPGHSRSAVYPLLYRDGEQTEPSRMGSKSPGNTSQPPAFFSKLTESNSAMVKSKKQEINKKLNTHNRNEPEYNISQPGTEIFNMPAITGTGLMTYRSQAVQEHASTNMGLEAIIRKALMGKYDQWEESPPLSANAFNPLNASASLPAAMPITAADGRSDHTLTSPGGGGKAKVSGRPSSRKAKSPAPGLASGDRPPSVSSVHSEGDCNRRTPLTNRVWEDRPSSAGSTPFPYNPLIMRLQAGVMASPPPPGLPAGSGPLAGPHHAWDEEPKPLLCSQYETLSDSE
Cytochrome P450 2C19, sequence (P33261 whole entry): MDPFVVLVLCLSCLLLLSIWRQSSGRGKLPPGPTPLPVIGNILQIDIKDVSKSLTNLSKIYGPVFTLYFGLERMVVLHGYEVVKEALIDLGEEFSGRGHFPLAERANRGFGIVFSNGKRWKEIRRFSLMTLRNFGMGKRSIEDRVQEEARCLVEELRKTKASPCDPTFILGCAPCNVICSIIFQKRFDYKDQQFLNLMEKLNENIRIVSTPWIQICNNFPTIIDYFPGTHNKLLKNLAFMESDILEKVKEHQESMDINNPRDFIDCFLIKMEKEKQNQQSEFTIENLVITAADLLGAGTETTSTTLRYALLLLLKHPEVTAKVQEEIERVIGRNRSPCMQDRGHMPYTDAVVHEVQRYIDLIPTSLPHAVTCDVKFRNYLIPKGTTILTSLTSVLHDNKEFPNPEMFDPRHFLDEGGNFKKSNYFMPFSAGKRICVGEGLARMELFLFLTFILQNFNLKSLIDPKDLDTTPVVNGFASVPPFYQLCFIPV

CCn1c(SCC(=O)O)nc2sc3c(c2c1=O)CCC3
IC50 [1]: 8.5 µM (active)
IC50 [2]: 14.5 µM (active)
IC50 [3]: 17.5 µM (active)
IC50 [4]: 1.29 µM (active)
IC50 [5]: 40.8 µM (active)
IC50 [6]: > 10 µM (not active)

O=C(Nc1ccc(O)c2c(=O)cc(-c3cccc(Cl)c3)oc12)c1cccc(Cl)c1
EC50 [7]: > 120 µM (not active)
EC50 [8]: > 120 µM (not active)
CC50 [9]: 0.83 µM (active)
EC50 [10]: 10.2 µM (active)

NCCOc1ccc(C23CC4CC(CC(C4)C2)C3)cc1
CC50 [11]: 13.1 µM (active)
CC50 [12]: 11.4 µM (active)
CC50 [9]: 10.7 µM (active)
CC50 [13]: > 20 µM (active)
IC50 [14]: 23.4 µM (active)

CCC1Nc2ncnc(N3CCN(c4ccccc4)CC3)c2N(Cc2ccc(Br)cc2)C1=O (centres undefined)
EC50 [15]: 1.59 µM (active)
EC50 [16]: > 60 µM (not active)
CC50 [17]: > 40 µM (active)

N#Cc1nc(Cc2cccc3ccccc23)oc1NCc1ccc(F)cc1
CC50 [18]: > 40 µM (active)

CCOc1ccc(C(=O)Nc2ccc(NC(=O)c3ccco3)c(Cl)c2)cc1Br
EC50 [19]: > 59.7 µM (inactive)
AC50 [20]: 22.4 µM (inconclusive)
AC50 [21]: 0.398 µM (inconclusive)
IC50 [22]: > 39.8 µM (not active)
IC50 [23]: > 39.8 µM (not active)
EC50 [24]: > 59.7 µM (inactive)
AC50 [25]: 0.562 µM (inconclusive)

Cc1ccc2cc(/C=C3\N=C(c4ccccc4)OC3=O)c(N3CCOCC3)nc2c1
EC50 [26]: > 300 µM (not active)
EC50 [27]: > 300 µM (inconclusive)
IC50 [28]: 1.54 µM (active)
EC50 [29]: 10.8 µM (active)

CCc1ccccc1NC(=O)CN(C)Cc1nc(N)nc(Nc2ccccc2C)n1
IC50 [4]: > 100 µM (not active)

O=C(CN1CCN(S(=O)(=O)c2ccc(Cl)s2)CC1)NCc1ccc(Cl)cc1
CC50 [18]: 15.1 µM (active)

Cc1cccc2nc(COc3ccc(Cl)c4cccnc34)cn12
IC50 [30]: 33.2 µM (active)

Cc1ccc(-c2nc3ccccc3o2)cc1NC(=S)NC(=O)/C=C/c1ccco1
CC50 [17]: 32.9 µM (active)

C/C=C/c1ccc([C@H]2[C@@H](C#N)N(C(=O)NC3CCCC3)[C@@H]2CO)cc1
AC50 [31]: 0.719 µM (active)
AC50 [32]: 0.626 µM (active)
AC50 [33]: 1.02 µM (active)
AC50 [34]: 15.4 µM (active)
AC50 [35]: 0.4 µM (active)

CO[C@@H]1CN(C)C(=O)c2ccc(NC(=O)C3CC3)cc2OC[C@@H](C)N(Cc2cccc(F)c2)C[C@H]1C
AC50 [36]: > 100 µM (inactive)
AC50 [31]: 4.29 µM (active)
AC50 [32]: 3.64 µM (active)
AC50 [33]: 2.98 µM (active)
AC50 [34]: 6.86 µM (active)
AC50 [35]: 0.664 µM (active)

C[C@@H](O)C#Cc1ccc2c(c1)O[C@@H](CN(C)Cc1ccc(-c3ccc(Cl)cc3)cc1)[C@@H](C)CN([C@@H](C)CO)S2(=O)=O
AC50 [37]: 1.26 µM (active)
AC50 [38]: 33.4 µM (active)
AC50 [39]: 1.29 µM (active)

c1ccc(N2CCN(Cc3nc4ccccc4[nH]3)CC2)nc1 [ABT-724]
IC50 [30]: 24 µM (active)
